{"source": "patent US6355799B1", "about": "“Substituted benzene compounds, process for their preparation, and herbicidal and defoliant compositions containing them” (ISK Americas Incorporated, priority 1997, dated 2002)", "format_in_all_cases": "in vivo", "key": {"[1]": {"test_system": "upland rice (Oryza sp., var. Tebonnet, RICE)", "test": "Pre-emerge test, crop safety", "details": "pre-emerge, 14 days after application, scale 0-100", "outline": "(§1)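 Rating: 0–100 visual injury, 14 DAA. Application: acetone, 187 l/ha, 15–1000 g ai/ha, flat-fan track sprayer with nozzle 40–45 cm above soil or canopy. Post-emerge runs used 0.25% v/v surfactant on 2–3 leaf plants.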"}, "[2]": {"test_system": "field corn (Zea mays L., var. Dekalb 535, CORN)", "test": "Pre-emerge test, crop safety", "details": "pre-emerge, 14 days after application, scale 0-100", "outline": "as §1"}, "[3]": {"test_system": "ivyleaf morningglory (Ipomoea hederacea, IPOHE)", "test": "Pre-emerge test, greenhouse herbicide activity screening", "details": "pre-emerge, 14 days after application, scale 0-100", "text": "(§2) A standard greenhouse herbicide activity screening system was used to evaluate the herbicidal efficacy and crop safety of these test compounds. Seven broadleaf weed species including redroot pigweed (Amaranthus retroflexus, AMARE, velvetleaf (Abutilon theophrasti, ABUTH), sicklepod (Cassia obtusifolia, CASOB), ivyleaf morningglory (Ipomoea hederacea, IPOHE), lambsquarters (Chenopodium album, CHEAL), common ragweed (Ambrosia artemisizfolia L., AMBEL), and cocklebur (Xanthium strumarium, XANST) were used as test species. Four grass weed species including green foxtail (Setaria viridis, SETVI), barnyardgrass (Echinochloa crus-galli, ECHCG), johnsongrass (Sorghum halepense, SORHA), and large crabgrass (Digitaria sanguinalis, DIGSA) were also used. In addition, three crop species, field corn (Zea mays L., var. Dekalb 535, CORN), soybean (Glycine max L., var. Pella 86, SOY), and is upland rice (Oryza sp., var. Tebonnet, RICE) were included.\n(§3) All plants were grown in 10 cm square plastic pots which were filled with a sandy loam soil mix. For pre-emerge tests, seeds were planted one day prior to application of the test compounds. For post-emerge tests, seeds were planted 8-21 days prior to the test to allow emergence and good foliage development prior to application of the test substances. At the time of the post-emerge application, plants of all species were usually at the 2-3 leaf stage of development.\n(§4) All test compounds Were dissolved in acetone and applied to the test units in a volume of 187 l /ha. Test materials were applied at rates ranging from 15 g ai/ha to 1000 g ai/ha using a track sprayer equipped with a TJ8001E even flow flat fan spray nozzle. Plants were arranged on a shelf so that the top of the canopy (post-emerge) or top of the soil surface (pre-emerge) was 40-45 cm below the nozzle. Pressurized air was used to force the test solution through the nozzle as it was mechanically advanced (via electrically driven chain drive) over the top of all test plants/pots. This application simulates a typical commercial field herbicide application.\n(§5) In the post-emerge test, a commercial non-ionic surfactant was also included (0.25% v/v) to enhance wetting of the leaf surfaces of target plants. Immediately after application, test units of the pre-emerge applications were watered at the soil surface to incorporate the test materials. Subsequently, these test units were bottom-watered. Post-emerge test units were always bottom-watered.\n(§6) At 14 days after application of the test materials, phytotoxicity ratings were recorded. A rating scale of 0-100 was used as previously described in Research Methods in Weed Science, 2nd edition, B. Truelove, Ed., Southern Weed Science Society, Auburn University, Auburn, Ala. 1977. Briefly, “0” corresponds to no damage and “100” corresponds to complete death of all plants in the test unit. This scale was used both to determine efficacy against weed species and damage to crop species. Herbicide activity data for various compounds of this invention, which are shown by compound No. in Tables 1-8, are shown in Tables 11 and 12."}, "[4]": {"test_system": "lambsquarters (Chenopodium album, CHEAL)", "test": "Pre-emerge test, greenhouse herbicide activity screening", "details": "pre-emerge, 14 days after application, scale 0-100", "text": "as §2, §3, §4, §5, §6"}, "[5]": {"test_system": "green foxtail (Setaria viridis, SETVI)", "test": "Pre-emerge test, greenhouse herbicide activity screening", "details": "pre-emerge, 14 days after application, scale 0-100", "text": "as §2, §3, §4, §5, §6"}, "[6]": {"test_system": "velvetleaf (Abutilon theophrasti, ABUTH)", "test": "Pre-emerge test, greenhouse herbicide activity screening", "details": "pre-emerge, 14 days after application, scale 0-100", "text": "as §2, §3, §4, §5, §6"}, "[7]": {"test_system": "barnyardgrass (Echinochloa crus-galli, ECHCG)", "test": "Pre-emerge test, greenhouse herbicide activity screening", "details": "pre-emerge, 14 days after application, scale 0-100", "text": "as §2, §3, §4, §5, §6"}, "[8]": {"test_system": "sicklepod (Cassia obtusifolia, CASOB)", "test": "Pre-emerge test, greenhouse herbicide activity screening", "details": "pre-emerge, 14 days after application, scale 0-100", "text": "as §2, §3, §4, §5, §6"}, "[9]": {"test_system": "large crabgrass (Digitaria sanguinalis, DIGSA)", "test": "Pre-emerge test, greenhouse herbicide activity screening", "details": "pre-emerge, 14 days after application, scale 0-100", "text": "as §2, §3, §4, §5, §6"}, "[10]": {"test_system": "upland rice (Oryza sp., var. Tebonnet, RICE)", "test": "Post-emerge test, crop safety", "details": "post-emerge, 14 days after application, rating scale 0-100", "outline": "(§7)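 Compounds in acetone were track-sprayed at 187 l/ha, 15–1000 g ai/ha, onto sandy loam pots. Pre-emerge seeds were sown one day before spraying, with surface watering afterwards. Post-emerge plants were at the 2–3 leaf stage and sprayed with 0.25% v/v non-ionic surfactant. Injury was rated 0–100 at 14 days.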"}, "[11]": {"test_system": "field corn (Zea mays L., var. Dekalb 535, CORN)", "test": "Post-emerge test, crop safety", "details": "post-emerge, 14 days after application, rating scale 0-100", "outline": "as §7"}, "[12]": {"test_system": "redroot pigweed (Amaranthus retroflexus, AMARE)", "test": "Pre-emerge test, greenhouse herbicide activity screening", "details": "pre-emerge, 14 days after application, scale 0-100", "outline": "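Plants grown in 10 cm pots of sandy loam mix received acetone-dissolved compounds through a moving flat-fan nozzle. Doses ranged from 15 to 1000 g ai/ha. Pre-emerge pots were seeded one day earlier, post-emerge pots 8–21 days earlier. Fourteen days on, each pot was graded 0–100 for damage.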"}, "[13]": {"test_system": "ivyleaf morningglory (Ipomoea hederacea, IPOHE)", "test": "Post-emerge test, greenhouse herbicide activity screening", "details": "post-emerge, 14 days after application, rating scale 0-100", "text": "as §2, §3, §4, §5, §6"}, "[14]": {"test_system": "lambsquarters (Chenopodium album, CHEAL)", "test": "Post-emerge test, greenhouse herbicide activity screening", "details": "post-emerge, 14 days after application, rating scale 0-100", "text": "as §2, §3, §4, §5, §6"}, "[15]": {"test_system": "green foxtail (Setaria viridis, SETVI)", "test": "Post-emerge test, greenhouse herbicide activity screening", "details": "post-emerge, 14 days after application, rating scale 0-100", "text": "as §2, §3, §4, §5, §6"}, "[16]": {"test_system": "velvetleaf (Abutilon theophrasti, ABUTH)", "test": "Post-emerge test, greenhouse herbicide activity screening", "details": "post-emerge, 14 days after application, rating scale 0-100", "text": "as §2, §3, §4, §5, §6"}, "[17]": {"test_system": "barnyardgrass (Echinochloa crus-galli, ECHCG)", "test": "Post-emerge test, greenhouse herbicide activity screening", "details": "post-emerge, 14 days after application, rating scale 0-100", "text": "as §2, §3, §4, §5, §6"}, "[18]": {"test_system": "redroot pigweed (Amaranthus retroflexus, AMARE)", "test": "Post-emerge test, greenhouse herbicide activity screening", "details": "post-emerge, 14 days after application, rating scale 0-100", "text": "as §2, §3, §4, §5, §6"}, "[19]": {"test_system": "sicklepod (Cassia obtusifolia, CASOB)", "test": "Post-emerge test, greenhouse herbicide activity screening", "details": "post-emerge, 14 days after application, rating scale 0-100", "text": "as §2, §3, §4, §5, §6"}, "[20]": {"test_system": "large crabgrass (Digitaria sanguinalis, DIGSA)", "test": "Post-emerge test, greenhouse herbicide activity screening", "details": "post-emerge, 14 days after application, rating scale 0-100", "text": "as §2, §3, §4, §5, §6"}}}
{"compound": "COc1c(Cl)cc(F)c(-n2c(=O)cc(C(F)(F)F)n(C)c2=O)c1NC(=O)COc1ccc(Cl)cc1", "note": "[2-135]", "values": [{"measurement": "phytotoxicity rating RICE (crop damage)", "setting": "[1]; 63 g ai/ha", "value": 0}, {"measurement": "phytotoxicity rating RICE (crop damage)", "setting": "[1]; 250 g ai/ha", "value": 35}, {"measurement": "phytotoxicity rating CORN (crop damage)", "setting": "[2]; 63 g ai/ha", "value": 0}, {"measurement": "phytotoxicity rating CORN (crop damage)", "setting": "[2]; 250 g ai/ha", "value": 0}, {"measurement": "phytotoxicity rating IPOHE", "setting": "[3]; 63 g ai/ha", "value": 20}, {"measurement": "phytotoxicity rating IPOHE", "setting": "[3]; 250 g ai/ha", "value": 100}, {"measurement": "phytotoxicity rating CHEAL", "setting": "[4]; 63 g ai/ha", "value": 100}, {"measurement": "phytotoxicity rating CHEAL", "setting": "[4]; 250 g ai/ha", "value": 100}, {"measurement": "phytotoxicity rating SETVI", "setting": "[5]; 63 g ai/ha", "value": 80}, {"measurement": "phytotoxicity rating SETVI", "setting": "[5]; 250 g ai/ha", "value": 100}, {"measurement": "phytotoxicity rating ABUTH", "setting": "[6]; 63 g ai/ha", "value": 90}, {"measurement": "phytotoxicity rating ABUTH", "setting": "[6]; 250 g ai/ha", "value": 100}, {"measurement": "phytotoxicity rating ECHCG", "setting": "[7]; 63 g ai/ha", "value": 10}, {"measurement": "phytotoxicity rating ECHCG", "setting": "[7]; 250 g ai/ha", "value": 30}, {"measurement": "phytotoxicity rating CASOB", "setting": "[8]; 63 g ai/ha", "value": 10}, {"measurement": "phytotoxicity rating CASOB", "setting": "[8]; 250 g ai/ha", "value": 60}, {"measurement": "phytotoxicity rating DIGSA", "setting": "[9]; 63 g ai/ha", "value": 60}, {"measurement": "phytotoxicity rating DIGSA", "setting": "[9]; 250 g ai/ha", "value": 95}, {"measurement": "RICE phytotoxicity rating (crop damage)", "setting": "[10]; 63 g ai/ha", "value": 20}, {"measurement": "RICE phytotoxicity rating (crop damage)", "setting": "[10]; 250 g ai/ha", "value": 40}, {"measurement": "CORN phytotoxicity rating (crop damage)", "setting": "[11]; 63 g ai/ha", "value": 10}, {"measurement": "CORN phytotoxicity rating (crop damage)", "setting": "[11]; 250 g ai/ha", "value": 25}, {"measurement": "phytotoxicity rating AMARE", "setting": "[12]; 63 g ai/ha", "value": 95}, {"measurement": "phytotoxicity rating AMARE", "setting": "[12]; 250 g ai/ha", "value": 100}, {"measurement": "IPOHE phytotoxicity rating", "setting": "[13]; 63 g ai/ha", "value": 100}, {"measurement": "IPOHE phytotoxicity rating", "setting": "[13]; 250 g ai/ha", "value": 95}, {"measurement": "CHEAL phytotoxicity rating", "setting": "[14]; 63 g ai/ha", "value": 100}, {"measurement": "CHEAL phytotoxicity rating", "setting": "[14]; 250 g ai/ha", "value": 100}, {"measurement": "SETVI phytotoxicity rating", "setting": "[15]; 63 g ai/ha", "value": 15}, {"measurement": "SETVI phytotoxicity rating", "setting": "[15]; 250 g ai/ha", "value": 40}, {"measurement": "ABUTH phytotoxicity rating", "setting": "[16]; 63 g ai/ha", "value": 100}, {"measurement": "ABUTH phytotoxicity rating", "setting": "[16]; 250 g ai/ha", "value": 100}, {"measurement": "ECHCG phytotoxicity rating", "setting": "[17]; 63 g ai/ha", "value": 0}, {"measurement": "ECHCG phytotoxicity rating", "setting": "[17]; 250 g ai/ha", "value": 20}, {"measurement": "AMARE phytotoxicity rating", "setting": "[18]; 63 g ai/ha", "value": 100}, {"measurement": "AMARE phytotoxicity rating", "setting": "[18]; 250 g ai/ha", "value": 100}, {"measurement": "CASOB phytotoxicity rating", "setting": "[19]; 63 g ai/ha", "value": 70}, {"measurement": "CASOB phytotoxicity rating", "setting": "[19]; 250 g ai/ha", "value": 100}, {"measurement": "DIGSA phytotoxicity rating", "setting": "[20]; 63 g ai/ha", "value": 0}, {"measurement": "DIGSA phytotoxicity rating", "setting": "[20]; 250 g ai/ha", "value": 10}]}
